In data set [1] the test system is E. coli ATCC strain no. 25922. Briefly: Bacterial growth inhibition assay (modified JIS Z2801: 2000). Type of data set: cell-based. The source says: (§1) The Japanese Industrial Standard (JIS) Z2801: 2000 method was slightly modified to analyze antibacterial activity of treated films against food-borne pathogenic bacteria (Association JS., “Antimicrobial products: Test for Antimicrobial Activity and Efficacy,” Japanese Industrial Standard JIS Z 2801 (2000), which is hereby incorporated by reference its entirety). Briefly, a culture of E. coli ATCC strain no. 25922 and a culture of L. monocytogenes from a food isolate were stored in 20% glycerol at −80° C. until use. The L. monocytogenes strain was obtained from the Cornell Food Safety Laboratory Bacterial Strains Collection as FSL C1-0053 and originally isolated from a finished ready-to-eat dairy food product. The cultures were streaked on tryptic soy agar (TSA) and incubated at 37° C. for E. coli and 30° C. L. monocytogenes for 24 hours. An isolated colony from each plate was used to inoculate 12 mL of tryptic soy broth (TSB), which was incubated with shaking for 24 hours at 37° C. A 100 μL aliquot of each culture was used to inoculate 50 mL TSB, which was incubated with shaking for 24 hours at 37° C. to achieve a cell density of 10^9 CFU/mL, which was confirmed by plate count on TSA. Each culture was diluted to reach a starting concentration of 10^5 CFU/mL, also confirmed by plate count on TSA. Treated films were cut into 5×5 cm^2 squares and stored in sterile conditions after the ethanol wash described in the synthesis step. A 0.4 mL aliquot of each 10^5 CFU/mL culture was placed on the treated films and covered with a 4×4 cm^2 sterile PP film to create a sandwich. The PP cover was lightly pressed down with sterile tweezers to distribute the inoculum across the treated film and the sandwich was placed in a Petri dish. The Petri dish was placed in an airtight box containing paper towels saturated with 100 mL of filtered water to maintain a humid environment. The entire apparatus was incubated at 37° C. for 24 hours. After incubation, 10 mL of phosphate buffered saline (PBS, pH 7.4) solution was pipetted into each Petri dish and well mixed to disassemble the sandwich and dilute the inoculated broth. An aliquot was taken from each Petri dish and serially diluted with PBS buffer. A 100 μL aliquot of the appropriate dilution was plated in duplicate on TSA and incubated for 24 hours at 37° C. Plates with 30-300 CFU were counted, and the average plate count of the duplicate plates was recorded. Plate counts for treated films were subtracted from the average plate count of the control to determine inhibition of bacterial growth. The assay was performed on triplicate coupons from two independently extruded batches, totaling 6 replicates per treatment.
(§2) To determine the antimicrobial performance of free curcumin, the assay was repeated with curcumin powder added to the starting inoculum. Curcumin powder was first completely dissolved in ethanol to prepare 2 mg/mL and 0.2 mg/mL stock solutions. Stock solutions were diluted 10× in TSB to final concentrations of 200 μg/mL and 20 μg/mL curcumin, which was then inoculated to a 10^5 CFU/mL starting concentration of either E. coli or L. monocytogenes, confirmed by plate count. The procedure was repeated by replacing the curcumin stock solutions with absolute ethanol (10% v/v in TSB) to quantify any growth inhibition due to ethanol. […]

Data set [2] relates to L. monocytogenes FSL C1-0053. The data set is described as above. Type of data set: cell-based.
Source text: as §1, §2

For a further data set, the system named is E. coli. The note with it: against E. coli, previous studies; cited from earlier work.
For data set [3] the following is noted: printed as pH 7.8; cited from earlier work.
The conditions of data set [4]: cited from earlier work.

Turning to `COc1cc(/C=C/C(=O)CC(=O)/C=C/c2ccc(O)c(OC)c2)ccc1O` [curcumin], the “antibacterial function of free curcumin” value in data set [1] (20 μg/mL curcumin in TSB) is on record as “did not display any antibacterial function”; in data set [2] (20 μg/mL curcumin in TSB, L. monocytogenes), “did not display any antibacterial function”. Also, the “inhibition of bacterial growth compared to control” value in data set [1] (10^5 CFU/mL inoculum, 37° C., 24 hours) is “poor bacterial inhibition”; in data set [2] (L. monocytogenes, 10^5 CFU/mL inoculum, 37° C., 24 hours) it was “poor bacterial inhibition”. Also, the “inhibition of L. monocytogenes by free curcumin” value in data set [2] (200 μg/mL curcumin, partially fell out of solution in TSB) is 1.63±0.83 log (CFU/mL). Further, the “minimum inhibitory concentration (MIC)” value with E. coli was 100 to 200 µg/mL. Also, the “pKa of the enolic hydrogen” value in data set [3] is listed as 7.8. The water solubility result in data set [4] is reported as “low”.

These data come from patent US20250319640A1, “ACTIVE AND/OR INTELLIGENT PACKAGING MATERIALS CONTAINING RADICAL SCAVENGING LIGANDS” (CORNELL UNIVERSITY, priority 2022, published 2025).
